In patent US9670223B2, “Compounds with super-aspirin effects” (SOLVOTRIN THERAPEUTICS LTD., priority 2011, dated 2017):
Entries after “also recorded” stand apart in the source; their conditions may differ.

Legend:
TCIPA = conditions: at up to 3 mM
HT1080 cells = assay: Tumour cell-induced platelet aggregation (TCIPA), static conditions, HT1080; type: cell-based, human; conditions: 500 μM
Protocol: Three human tumor cell lines, 59M ovarian adenocarcinoma, Caco-2 colon adenocarcinoma and HT1080 fibrocarcinoma cells, were obtained from the European Cell Culture Collection. Cell lines were cultured as monolayers in 75 ml culture flasks at 37° C. in a humidified atmosphere with 5% CO2. 59M cells and HT1080 were cultured in Dulbecco's […] (DMEM) supplemented with 10% fetal bovine serum (FBS) and gentamycin (0.05 mg/ml), penicillin (0.06 mg/ml), and streptomycin (0.01 mg/ml). Caco-2 cell line was cultured in Minimum Essential Medium (MEM) supplemented with 20% FBS and the same antibiotics as above. The cells were supplied with fresh medium and subcultured three times each week.
Washed platelet suspensions (2.5×10^11 platelets 1^−1) were prepared from blood an mixed with the anticoagulant sodium citrate (0.315% final concentration).
The interactions between platelets and tumor cells were measured by light aggregometry (Alonso-Escolano et al., 2004; Jurasz et al., 2001b; Radomski et al., 1991). Briefly, washed platelet samples (2.5×10^8/ml) were placed in an eight channel PAP 8 aggregometer (BIO/DATA CORPORATION, Horsham, Pa., U.S.A.) and incubated for 10 min at 37° C., with stirring at 900 r.p.m., prior to the addition of aggregating agents. […] TCIPA was initiated by the addition of cancer cells, and monitored by Aggro-Link software for at least 30 min. For experiments using inhibitors, aggregation was initiated after 10 min preincubation with these compounds.
To study the ability of the aspirin pro-drugs to inhibit TCIPA in WP cancer cell lines such as HT1080 cells (2×10^5/ml), CaCo2 cells (1.5×10^3/ml) or 59M cells (1×10^3/ml) were used in the presence or absence of aspirin nicotinate (ST0702), ISAS, orthonitrate and metanitrate at 300 and 500 μM. Platelet aggregation was initiated in washed platelets (WP) using HT1080 cells (2×10^5/ml), CaCo2 cells (1.5×10^3/ml) or 59M cells (1×10^3/ml). In addition, regular aspirin (300 and 500 uM) was used as control. Results were expressed in percent changes in maximal light transmission, with 100% representing light transmission of platelet medium alone. ST0702 is hydrolyzed by plasma esterases along two pathways liberating both aspirin and 5-nicotinate salicylate (ST0702 salicylate)(metabolite). The latter is further processed to isosorbide-5-nicotinate and eventually to nicotinic acid. The orthonitrate and metanitrate compounds liberate aspirin and nitric oxide (NO). ISAS meanwhile is hydrolysed to aspirin and salicylic acid. Aspirin (300 and 500 μM) was used in control experiments. Results were expressed in percent changes in maximal light transmission, with 100% representing light transmission of platelet medium alone. Further experiments were performed with ST0702 salicylate (500 μM).

59M cells [1] = assay: Flow-mediated TCIPA using an ultrasound standing wave trap; type: cell-based, human; conditions: 500 μM, 59M cell cluster
Description: The ultrasound trap had three essential features: a transducer (Ferroperm, Kvistgard, Denmark) in a housing of radial symmetry, an aqueous phase and a reflector that provided optical access from above. The trap was driven with a function generator (Hewlett Packard 33120A, UK). Microscopic observation occurred with a fast, high-resolution XM10 camera (Soft Imaging System, SIS, GmbH) mounted on an Olympus BX51M reflection epi-fluorescence microscope. Images were captured by a standard PC equipped with the Cell-D image acquisition software (Soft Imaging System, SIS, GmbH).
The experimental procedure was as follows: 59M cells were introduced into the trap, the acoustic field (2.13 MHz, 0.85 MPa) was initiated and cell clusters were allowed to form. Clusters remained levitated in suspension for 10 min. Washed platelets (2.5×10^8/ml) were introduced into the trap at a flow rate of 3 μl/min. Perfusion of washed platelets around the cluster proceeded following initial adhesion of platelets to the periphery of the cluster.
To study the effect of aspirin and aspirin prodrugs in TCIPA, washed platelets were pre-incubated for 10 min at room temperature with the inhibitors: aspirin, nicotinate, ISAS, ISMNA, ortho and meta (all at a concentration of 500 μM), prior to their introduction into the ultrasound trap. […] The cell cluster-platelet aggregate remained under microscopic observation for further 10 min (the upper time limit established in the current study) under continuous flow conditions. Further experiments were performed with ST0702 salicylate (500 μM).

[2] = In-vitro half life of the ST0702 metabolite; type: in vitro ADME
washed platelet samples = assay: Collagen-induced platelet aggregation in the TCIPA studies (washed platelets); type: cell-based, human; conditions: collagen 2 μg/ml (FIG. 16B)
[3] = test system: platelet rich plasma (PRP); assay: ADP-induced platelet aggregation in PRP; type: cell-based, human
Protocol: (§1) PRP and WP (2.5×10^8 platelets ml^−1) were prepared from blood. Briefly 36 ml whole blood was collected into 4 ml of 3.15% sodium citrate; this was centrifuged at 250 ¥g for 20 min (with gentle acceleration and deceleration). At this point PRP, which had separated from white blood cells and red blood cells, was gently removed. When WP were required this PRP was centrifuged at 700 g for 10 min (with gentle acceleration and deceleration) in the presence of prostacyclin. The platelet-poor plasma (PPP) was removed and the platelet pellet was washed three times with Tyrode's buffer, before being re-suspended in Tyrode's buffer to a concentration of 2.5 ¥108 platelets/ml.
(§2) Platelet aggregation was measured by light aggregometry. […] Aggregation was initiated by the addition of agonists, and monitored by Aggro-Link software for at least 6 min.
(§3) To study the aggregatory potency of ADP, the concentration-response (0.3-10 μM) curves were generated. Collagen at different concentrations (2-5 μg/ml) was also used to induce platelet aggregation. Submaximal concentrations of agonists, i.e. the concentrations that gave approximately 95% of the maximal aggregation were used to study the effects of inhibitors of aggregation. Aspirin and aspirin prodrugs was incubated for various intervals prior to the addition of aggregating agents.
(§4) Eserine (in DMSO, 10 μM, giving a final concentration≦0.25% DMSO, which pilot studies had determined not to affect platelet aggregation) was preincubated with PRP or WP for 5 min in the aggregometer with stirring at 900 r.p.m. before the addition of test compounds (ST0701-05), which were incubated in PRP or WP for a further 10 min prior to the addition of an agonist (10 μM ADP or 5 μg/ml Collagen) to induce platelet aggregation.
1H-[1,2,4]Oxadiazolo[4,3-a]quinoxalin-1-one (ODQ, dissolved in 100% DMSO, used at a final concentration of 10 μM, which gave a final concentration not more than 0.25% DMSO) was preincubated with PRP or WP for 5 min in the aggregometer with stirring at 900 r.p.m. before the addition of test compounds (ST0701-05), which were incubated in PRP or WP for a further 10 min prior to the addition of an agonist (10 μM ADP or 5 μg/ml collagen) to induce platelet aggregation.
Eserine (10 μM) was incubated with PRP for 5 min in the aggregometer with stirring at 900 r.p.m. before the addition of test compound ST0702 salicylate (500 μM), which was incubated in PRP for a further 10 min prior to the addition of the agonist ADP (10 μM) to induce platelet aggregation.

P-selectin [4] = assay: Flow cytometry of platelet P-selectin during TCIPA induced by 59M cells; type: cell-based, human; conditions: 300 μM
washed platelets (WP) = assay: Collagen-induced platelet aggregation in washed platelets (light aggregometry); type: cell-based, human; parameters: IC50: unit of the concentration uncertain
Protocol: as §1, §2, §3
To study the involvement of plasma BuChE in the activation of ST0701, purified BuChE (3 U/ml) was incubated with WP for 5 min in the aggregometer with stirring at 900 r.p.m. before the addition of the test compounds ST0701 which was incubated with the WP for a further 10 min, prior to the addition of collagen (5 ug/ml).
as §4
Phenylmethylsulphonylfluoride (PMSF) 20, 50 and 100 μM dissolved in EtOH (<0.2% EtOH, which pilot studies had determined not to affect platelet aggregation) was preincubated in WP in the aggregometer for 5 min with stirring at 900 r.p.m. before the addition of test compound ST0702 to the WP, which was further incubated for 10 min prior to the addition of collagen (2 μg/ml) to induce platelet aggregation.

GPIIb/IIIa = assay: Flow cytometry of activated GPIIb/IIIa on platelets after collagen stimulation; type: cell-based, human; conditions: 60 μM
Protocol: (§5) In order to analyze receptor expression on the surface of individual platelets and to minimize platelet activation caused by sample preparation procedures, no stirring or vortexing steps were used. The abundance of activated GPIIb/IIIa and P-selectin on the surface of platelets in the presence and absence of inhibitors was measured by flow cytometry. Platelet samples were first activated with agonists either collagen or ADP. When platelet aggregation reached 50% maximal light transmission the reaction was terminated by 10-fold dilution with physiologic saline. Resting platelets were used as control. […] The activated GPIIb/IIIa platelet receptors were measured using PAC-1 monoclonal antibody at the same concentration as above. […] Following incubation, samples were diluted in FACS Flow fluid and analyzed within 5 min using a BD FACSArray (BD Biosciences, Oxford, UK). […] The instrument was set up to measure the size (forward scatter), granularity (side scatter) and cell fluorescence. […] Antibody binding was measured by analyzing individual platelets for fluorescence. The mean fluorescence intensity was determined after correction for cell autofluorescence. For each sample, the fluorescence was analyzed using a logarithmic scale. Fluorescence histograms were obtained for 10,000 individual events. […]

[5] = test system: platelet rich plasma (PRP); assay: Collagen-induced platelet aggregation in platelet rich plasma (light aggregometry); type: cell-based, human; conditions: 200 μM in PRP, collagen 5 μg/ml
Protocol: as §1, §2, §3, §4

59M cells [6] = assay: Tumour cell-induced platelet aggregation (TCIPA), static conditions, 59M; type: cell-based, human; conditions: static, WP, 300 and 500 μM, 59M 1×10^3/ml; listed as ISAS
Description: ISAS meanwhile is hydrolysed to aspirin and salicylic acid. […] The structure of platelet-tumor cell aggregates was studied using phase-contrast microscopy (Alonso-Escolano et al., 2004; Jurasz et al., 2001). […] Aliquots of each sample were then taken for phase-contrast microscopy examination using an Olympus CKX41 microscope (Olympus America Inc., […].). Photomicrographs were captured using a digital camera and MicroFire (Olympus America Inc.) software (Alonso-Escolano et al., 2004; Jurasz et al., 2001).

P-selectin [7] = assay: Flow cytometry of P-selectin on platelets after collagen stimulation; type: cell-based, human; conditions: 60 μM
Protocol: as §5

platelets = conditions: literature, cited from earlier work

O=C(OC1COC2C(O)COC12)c1cccnc1 (stereo not shown) [isosorbide-5-nicotinate]
inhibition of TCIPA (TCIPA): did not inhibit TCIPA

O=C(O)c1cccnc1 [nicotinic acid, reference compound]
inhibition of TCIPA (TCIPA): did not inhibit TCIPA

O=C(O[C@@H]1CO[C@H]2[C@@H]1OC[C@@H]2OC(=O)c1ccccc1O)c1cccnc1 [ST0702 salicylate, isosorbide-2-salicylate-5-nicotinate]
inhibition of TCIPA in response to HT1080, no flow (HT1080 cells): inhibit TCIPA | inhibition of TCIPA under flow conditions (platelet-tumour cell disruption) (59M cells [1]): did not inhibit TCIPA under flow conditions | half life in-vitro [2]: very short | inhibition of collagen-induced platelet aggregation (washed platelet samples): did not inhibit collagen-induced platelet aggregation | inhibition of ADP-induced aggregation in PRP ([3]; 500 μM, ADP 10 μM): inhibited ADP-induced aggregation | inhibition of ADP-induced aggregation in PRP in the presence of eserine ([3]; 500 μM, eserine 10 μM): became significant

CC(=O)Oc1ccccc1C(=O)OC1COC2C(OC(=O)c3ccccc3O)COC12 (stereo not shown) [ST0701, isosorbide-2-aspirinate-5-salicylate]
59M-mediated increase in platelet surface P-selectin (P-selectin [4]): failed to prevent | inhibitory actions in WP after addition of human BuChE purified from plasma (washed platelets (WP); BuChE 3 U/ml, collagen 5 μg/ml): rescued | inhibition of collagen induced aggregation in WP (washed platelets (WP); at 500 μM, collagen 5 μg/ml): 50% | IC50 (washed platelets (WP); inhibition of platelet aggregation in response to collagen (5 (unit uncertain)), washed platelets): 200 µM | activation of GPIIb/IIIa in PRP (GPIIb/IIIa): significantly suppressed | inhibition of aggregation at 2 min preincubation [5]: 40% | preincubation time at which inhibition is maximal [5]: 5 min | inhibition of TCIPA induced by 59M (59M cells [6]): able to inhibit; also recorded: inhibited | translocation of P-selectin in PRP (P-selectin [7]; PRP): significantly suppressed | translocation of P-selectin in WP (P-selectin [7]; WP): not in WP | inhibition of ADP (10 μM) induced aggregation in PRP, comparison in words ([3]; ADP 10 μM, PRP): more efficacious than aspirin | effect of ODQ pretreatment on inhibition of ADP induced aggregation ([3]; ODQ 10 μM, compounds 100 μM, ADP 10 μM, PRP): increased the inhibition

CC(=O)Oc1ccccc1C(=O)Oc1cccc(CO[N+](=O)[O-])c1 [NCX-4016]
inhibition of platelet aggregation in WP (platelets; NO and cGMP independent): inhibits platelet aggregation | inhibition of platelet aggregation in PRP (platelets): does not inhibit platelet aggregation
